From publication PMC11571109, “Covalent Inhibitors of S100A4 Block the Formation of a Pro-Metastasis Non-Muscle Myosin 2A Complex” (Journal of Medicinal Chemistry, 2024)
Where “and” joins values, the source holds several entries; their conditions need not be identical. Equal values may be shown once. Read-outs that look alike come from different tables or passages of the source. One block for each compound: values may come before it.

What was measured:
[1] = Cytotoxicity assay (LDH-Glo), HeLa; assay type: cell-based; details: human, HeLa cells, supplementary CSV, read-out: HeLa Cell toxicity IC50
Protocol: (§1) To further characterize the potency of the phenylproline derivatives on cancer cells, their effect on proliferation has been measured on HeLa and A549 cell lines, which are known to express S100A4.[44],[45] A cell proliferation assay was performed by cultivating cells for 48 h in complete media with various concentrations of inhibitors, up to 30 μM. At the end of the treatment, luminescence was measured after the addition of the CellTiter-Glo reagent (Figure 7A).
(§2) The day before, cells were seeded in a white, cell-culture treated 384-well plates in complete high-glucose DMEM to reach a confluency of 25% on the day of the experiment. The next day, the medium was replaced by complete, high-glucose, phenol-red-free medium, and cells were incubated for 48 h in the presence of an inhibitor or DMSO as a control. Aliquots of the supernatant were harvested, diluted 100 times in 200 mM Tris-HCl, pH 7.3, 10% glycerol, and 1% BSA buffer, and used for cyctotoxicity measurement by using the LDH-Glo cytotoxicity assay kit (Promega). In parallel, the CellTiter-Glo (Promega) reagent was added to the cells to measure cell proliferation. Both experiments were done according to the manufacturer’s recommendations, and the luminescence was quantified using the FSX plate reader (Pherastar).

[2] = tested on: HeLa; test: Cell proliferation assay (CellTiter-Glo), HeLa; assay type: cell-based; details: Homo sapiens, 48 h, supplementary CSV
Protocol: as §1, §2

[3] = tested on: A549; test: Cell proliferation assay (CellTiter-Glo), A549; assay type: cell-based; details: Homo sapiens, 48 h, supplementary CSV
Protocol: as §1, §2

[4] = Log D; assay type: physicochemical
Excerpt: (§3) Selected compounds were screened for aqueous solubility in PBS (pH 7.4), metabolic stability in mouse liver microsomes (MLM) as a measure of clearance, Log D, and permeability. ADME studies reported in this work were independently performed by WuXi AppTec (Shanghai, China). Raw data are provided upon request.

[5] = tested on: MDCK-MDR1 cell line; test: Cell permeability MDR1-MDCK II; assay type: in vitro ADME
Excerpt: as §3

[6] = tested on: P-glycoprotein (P-gp, MDR1); test: Cell permeability MDR1-MDCK II; assay type: in vitro ADME; details: dog
Excerpt: as §3

[7] = Aqueous solubility in PBS (pH 7.4); assay type: physicochemical; details: for solubility: aqueous buffer, PBS pH 7.4, read-out: aq. solubility
Excerpt: as §3

[8] = GSH reactivity assay (LCMS); assay type: physicochemical; details: 1 mM glutathione (GSH) in HEPES buffer, pH 7.5; read-out: GSH t1/2 (converted)
Protocol: GSH is the most abundant low molecular weight thiol compound in the cell. It protects cells from oxidative damage and the toxicity of xenobiotic electrophiles and maintains redox homeostasis.[43] We speculated that a robust and specific reaction of inhibitors would not be drastically affected by competitive cysteines in the reaction.
50 μM of each compound was incubated at room temperature with 1 mM GSH in 50 mM HEPES, 20 mM NaCl, pH 7.5, and 1.3% DMSO. At each time point, an aliquot was taken and analyzed by LCMS. The percentage of the compound remaining was determined by comparing the area of the peaks of the compound and the GSH adduct. The natural logarithm of the results was fitted to a linear regression, and t1/2 was calculated as t1/2 = ln(2)/–slope.

[9] = Cytotoxicity assay (LDH-Glo), A549; assay type: cell-based; details: human, A549 cells, supplementary CSV, read-out: A549 Cell toxicity IC50
Protocol: as §1, §2

[10] = Metabolic stability in mouse liver microsomes (MLM); assay type: in vitro ADME; details: mouse liver microsomes; for half-life: read-out: MLM, T1/2
Excerpt: as §3

[11] = biological target: T1, S100A11-AnII (Homo sapiens, UniProt P31949); test: HTRF (TR-FRET) peptide displacement S100A11-AnII; assay type: binding; details: supplementary CSV
T1 construct: made in house; host or cells: E. coli Rosetta (DE3); peptide from LifeTein
T1 sequence (P31949 1-105): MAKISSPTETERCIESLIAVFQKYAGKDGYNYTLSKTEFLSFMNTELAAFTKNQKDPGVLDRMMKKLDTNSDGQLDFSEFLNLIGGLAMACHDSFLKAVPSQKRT
Protocol: Table S4: Compound IDs and SMILES … S30 […]
(§4) Peptide displacement assay development
(§5) addition of an inhibitor.
(§6) Assay was done in 384-well
(§7) After 2 hours of incubation at
(§8) concentration range to avoid the saturation of the signal.

[12] = biological target: T2, S100A4-NMII (Homo sapiens, UniProt P26447); test: HTRF (TR-FRET) peptide displacement S100A4-NMII (MPN peptide); assay type: binding; parameters: made in house; host or cells: E. coli Rosetta (DE3); peptide from LifeTein; details: supplementary CSV; read-out: S100A4 IC50 HTRF assay
T2 sequence (P26447 whole entry): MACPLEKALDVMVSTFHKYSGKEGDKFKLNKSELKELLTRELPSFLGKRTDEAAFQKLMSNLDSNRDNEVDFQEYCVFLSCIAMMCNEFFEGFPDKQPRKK
Protocol: as §4, §5, §6, §7, §8

[13] = biological target: T3, S100A4 (Homo sapiens, UniProt P26447); test: Protein labeling detection by mass spectrometry, S100A4; details: 10 μM S100A4, 100 μM inhibitor, 1 h
T3 sequence (P26447 whole entry): as above

[14] = tested on: HeLa cells; test: Cell migration (wound healing) assay, HeLa; assay type: cell-based; details: 8 μM, 36 h
Protocol: We next investigated whether phenylproline derivatives would inhibit S100A4 activity by affecting cell migration. HeLa and A549 cells were challenged for a cell migration assay in the presence of phenylproline derivatives. A monolayer of cells was scratched and treated with various concentrations of inhibitors for 36 h. Cell migration was monitored automatically using the Incucyte live-cell imager by imaging cells every 2 h.
The day before the experiment, cells were seeded in a black, clear-bottom, collagen-coated 96-well plate in complete high-glucose DMEM to reach nearly full confluency the next day. On the day of the experiment, a wound in the cell layer was made, and the media were replaced with media containing phenylproline derivatives. Cells were incubated for 36 h in an Incucyte cell-imager (Sartorius, Germany), allowing for automated cell imaging every 2 h. The analysis was done by measuring the wound area using ImageJ and plugging the wound healing tool.

[15] = biological target: T2, S100A4-NMII; test: cell-based
Excerpt: First, we performed IC50 measurements of protein–protein interaction in the presence of inhibitors using NanoBret technology. Briefly, S100A4-HaloTag and NMII-NanoLuc were expressed in 293HEK cells to allow signal detection from donor (NanoLuc) and acceptor (HaLoTag) proximity upon S100A4-NMII interaction.
Assay development was done according to the NanoBRet-NanoGlo detection system manufacturer’s recommendations (Promega) by testing each combination of N- and C-termini of HaloTag and NanoLuc fusion constructs. 293HEK cells were seeded on 6-well plates in complete DMEM media and transfected 6 h later with S100A4-NanoLuc (1.8 μg) and NMII-HaloTag (0.2 μg) constructs using the JetPrime transfection reagent (Polyplus Transfection, Strasbourg, France). After an overnight incubation, cells were resuspended in phenol-red-free, 4% serum media in the presence of the HaloTag NanoBret 618 ligand or DMSO for control. […] NanoBret NanoGlo substrates were added to cells prior to reading the plate with the Pherastar FSX plate reader. The raw Nanobret ratio was calculated by dividing the acceptor emission value (618 nm) by the donor emission value (460 nm) for each sample. The mean NanoBret data were calculated by subtracting the background ratio (no acceptor control) from the sample ratio.

[16] = biological target: T3, S100A4; test: biochemical
Protocol: As a starting point to discover new S100 inhibitors, we used a peptide-displacement assay based on the Amplified Luminescent Proximity Homogeneous Assay (AlphaScreen) of a His-tagged protein interacting with a biotinylated peptide and its ability to be disrupted by small molecule inhibitors of protein interactions.[31] We took advantage of the ability of several S100 proteins to interact with the TRTK-12 peptide.[32] The optimal experimental conditions were determined by performing a protein versus peptide titration for each protein. Serial dilutions of purified 6His-S100 protein (S100A2, S100A4, S100A5, or S100B) were mixed with a serial dilution of a biotinylated TRTK-12 peptide in the presence of 1 mM calcium to allow conformational changes and activation of S100 proteins. […]
(§9) A 4 989 compound library was screened using an Alpha-Screen assay. […] Twelve wells per plate were used as solvent controls and as a reference for inhibition calculation, which was calculated as inhibition (%) = (1 – (Fsample– Fbackground)/(Fsolvent – Fbackground)) × 100
(§10) The best hits from the single-shot experiment were tested for IC50 determination using the HTRF assay as described above. […] The percentage of inhibition was calculated as described above and was used for IC50 determination. […]

[17] = biological target: S100A5 (Homo sapiens, UniProt P33763); details: read-out: IC50 S100A5 - TRTK peptide displacement; AlphaScreen, duplicate, 50 μM top FAC
Sequence of S100A5 (P33763 whole entry): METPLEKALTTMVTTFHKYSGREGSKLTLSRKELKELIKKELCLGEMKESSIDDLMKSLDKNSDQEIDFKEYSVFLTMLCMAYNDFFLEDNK
Protocol: (§11) As a starting point to discover new S100 inhibitors, we used a peptide-displacement assay based on the Amplified Luminescent Proximity Homogeneous Assay (AlphaScreen) of a His-tagged protein interacting with a biotinylated peptide and its ability to be disrupted by small molecule inhibitors of protein interactions.[31] We took advantage of the ability of several S100 proteins to interact with the TRTK-12 peptide.[32] The optimal experimental conditions were determined by performing a protein versus peptide titration for each protein. Serial dilutions of purified 6His-S100 protein (S100A2, S100A4, S100A5, or S100B) were mixed with a serial dilution of a biotinylated TRTK-12 peptide in the presence of 1 mM calcium to allow conformational changes and activation of S100 proteins. The protein–peptide ratio that allows the highest signal to background, without signal saturation, was chosen as the assay condition for each protein to perform the first screening campaign (Figure S1 and Table S1). An internal diversity library of 4 989 small molecules was screened at a single-dose of 50 μM in duplicate in a 384-well plate format. The four S100 protein screening experiments were performed in parallel. […] We also selected the hits based on their ability to show specificity for one protein; compounds showing 50% or more inhibition for other S100 proteins were not selected (Supporting Information).
as §9, with “assay. 6His-Tag-S100A2, -S100A4, -S100A5, and -S100B were used in combination with TRTK-Biotin peptide under conditions described previously.” for “assay.”
as §10

[18] = biological target: S100B (Homo sapiens, UniProt P04271); details: read-out: IC50 S100B - TRTK peptide displacement; AlphaScreen, duplicate, 50 μM top FAC
Sequence of S100B (P04271 whole entry): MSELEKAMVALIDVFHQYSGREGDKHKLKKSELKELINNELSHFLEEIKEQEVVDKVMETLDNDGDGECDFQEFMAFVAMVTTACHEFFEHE
Protocol: as §11
as §9, with “assay. 6His-Tag-S100A2, -S100A4, -S100A5, and -S100B were used in combination with TRTK-Biotin peptide under conditions described previously.” for “assay.”
as §10

[19] = biological target: S100A2 (Homo sapiens, UniProt P29034); details: read-out: IC50 S100A2 - TRTK peptide displacement; AlphaScreen, duplicate, 50 μM top FAC
Sequence of S100A2 (P29034 whole entry): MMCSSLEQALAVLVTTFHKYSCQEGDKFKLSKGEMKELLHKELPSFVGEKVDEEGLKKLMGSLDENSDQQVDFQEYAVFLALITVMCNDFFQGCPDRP
Protocol: as §11
as §9, with “assay. 6His-Tag-S100A2, -S100A4, -S100A5, and -S100B were used in combination with TRTK-Biotin peptide under conditions described previously.” for “assay.”
as §10

[20] = MDCK-MDR1, A to B, read-out: MDR1-MDCK II, AB Papp
[21] = MDCK-MDR1, B to A, read-out: MDR1-MDCK II, BA Papp

IC50 [2]: 2.6 µM
IC50 [3]: 22.1 µM
logD [4]: 3.74
cell permeability MDCK-MDR1 (in words) [5]: good permeability without efflux
Papp [6, 20]: 3.8 ×10⁻⁶ cm/s
Papp [6, 21]: 34.5 ×10⁻⁶ cm/s
aqueous solubility (in words) [7]: good solubility
solubility [7]: 45.7 µg/mL and 115 µM
half-life at 50 μM [8]: 5.7 h
MLM, Cli [10]: 778 μL/min/mg protein
half-life [10]: 2 min
IC50 [11]: > 30 µM
Structure (SMILES): O=C(NC1CCCc2ccccc21)[C@H]1C[C@H](c2ccccc2)CN1C(=O)CCl (stereo partly shown) [5b]
IC50 at 48 h [1]: 29.9 µM
IC50 at 48 h [9]: 29.7 µM

IC50 [12]: 7.4 µM
IC50 [11]: 33.8 µM
Structure (SMILES): O=C(Nc1cccc(Cl)c1)[C@H]1C[C@H](c2ccccc2)CN1C(=O)CCl [compound 5]

IC50 [12]: 2.4 µM
IC50 [11]: > 30 µM
Structure (SMILES): O=C(CCl)Nc1cccc(CN(CCc2cnn(-c3nccc4c(=O)[nH]cnc34)c2)C2CCCC2)c1 [3a]

IC50 [12]: 3.25 µM
IC50 [11]: > 30 µM
Structure (SMILES): O=C1Nc2ccccc2C1NC(=O)[C@H]1C[C@H](c2ccccc2)CN1C(=O)CCl (stereo partly shown) [5e]

IC50 [12]: 1.05 µM
IC50 [11]: > 30 µM
Structure (SMILES): CN1CCCC(NC(=O)[C@H]2C[C@H](c3ccccc3)CN2C(=O)CCl)C1=O (stereo partly shown) [5d]

IC50 [12]: 0.48 µM
S100A4 covalent modification pattern (in words) [13]: multiple adduct additions
IC50 [11]: 1.35 µM
Structure (SMILES): CC(C)c1c(-c2cnn(C3CCN(C(=O)/C=C/C(=O)c4ccccc4)CC3)c2)[nH]c2c(C#N)cnn2c1=O [2b]

IC50 [2]: 3.1 µM
IC50 [12]: 4.22 µM
S100A4 covalent modification pattern (in words) [13]: single shifts
IC50 [3]: 25 µM
IC50 [15]: 20 µM
logD [4]: 3.95
Papp [6, 20]: 0.8 ×10⁻⁶ cm/s
Papp [6, 21]: < 26.4 ×10⁻⁶ cm/s
solubility [7]: 23.9 µg/mL and 63.4 µM
half-life at 50 μM [8]: 9.4 h
MLM, Cli [10]: 332 μL/min/mg protein
half-life [10]: 4 min
IC50 [11]: > 30 µM
Structure (SMILES): O=C(Nc1cccc(Cl)c1)[C@H]1C[C@H](c2ccccc2)CN1C(=O)CCl [5a]
IC50 at 48 h [1]: 55.8 µM
wound healing (cell migration) [14]: drastically reduced wound healing
IC50 at 48 h [9]: 27.1 µM

IC50 [16]: < 1 µM
IC50 ([16]; read-out: IC50 S100A4 - TRTK peptide displacement, AlphaScreen, duplicate, 50 μM top FAC, 1 mM calcium): 1.23 µM
IC50 [17]: > 30 µM
IC50 [18]: > 30 µM
IC50 [19]: > 30 µM
Structure (SMILES): Cc1ccc(S(=O)(=O)/C=C/C#N)cc1 [compound 1]
